According to patent publication US20110152223A1, “THERAPEUTIC AGENT FOR ANCA-RELATED VASCULITIS” (priority 2008, published 2011):

How the values were obtained:
Format in all cases: in vivo
[1] = tested on: CTLA4; experiment: mRNA expression level of CTLA4 in the kidneys of SCG/Kj mice (quantitative real-time PCR); details: 5% EPA-E diet from seven weeks old until completed 11th week of age
Procedure: (§1) SCG/Kj mice (seven weeks old) were divided into three groups comprising 6 or 7 animals each, and fed under the same conditions as Example 1 until they completed their 11th week of age. The mRNA expression levels of PD-1, PD-L1, PD-L2, Foxp3, and CTLA4 in the kidneys, lungs and spleens of the mice were evaluated.
(§2) A frozen kidney was homogenized in a TRIzol® reagent (Invitrogen, Carlsbad, Calif.). Total RNA was prepared from the homogenate, and purified using PureLink Micro-to-Midi Total RNA Purification System (Invitrogen). SuperScript™ III first-strand synthesis system (Invitrogen) was used to prepare cDNA from the purified total RNA, and quantitative real-time PCR was conducted with ABI Prism® 7000 (Applied Biosystems, Foster City, Calif.). For primers and probes for PCR, TaqMan® gene expression assays (Applied Biosystems) were used.

[2] = tested on: Foxp3; experiment: mRNA expression level of Foxp3 in the kidneys of SCG/Kj mice (quantitative real-time PCR); details: 5% EPA-E diet from seven weeks old until completed 11th week of age
Procedure: as §1, §2

[3] = tested on: PD-L1; experiment: mRNA expression level of PD-L1 in the kidneys of SCG/Kj mice (quantitative real-time PCR); details: 5% EPA-E diet from seven weeks old until completed 11th week of age
Procedure: as §1, §2

[4] = tested on: SCG/Kj mice; experiment: Action of EPA on the survival rate of SCG/Kj mice as an ANCA model; details: SCG/Kj mice fed 5% diet in a free-feeding state from seven weeks old
From the text: SCG/Kj mice (seven weeks old) as a spontaneous ANCA vasculitis/nephritis model (Nippon Kayaku Co., Ltd.) were divided into three groups comprising 6 or 7 animals each, and fed on (1) fish meal-free feed F1 (Funakoshi Co., Ltd.) (control group), (2) 5% corn oil diet (manufactured by Sigma Corporation) (corn oil group), or (3) 5% EPA-E diet (diet F1 with 5% EPA-E added thereto) (EPA group) in a free-feeding state so as to observe the survival rate.

[5] = tested on: PD-L2; experiment: mRNA expression level of PD-L2 in the kidneys of SCG/Kj mice (quantitative real-time PCR); details: 5% EPA-E diet from seven weeks old until completed 11th week of age
Procedure: as §1, §2

[6] = tested on: MPO-ANCA; experiment: MPO-ANCA in the serum of SCG/Kj mice by ELISA (ANCA production); details: 5% EPA-E diet from seven weeks old until completed 11th week of age, absorbance at 405 nm
Procedure: SCG/Kj mice (seven weeks old) were divided into three groups comprising 6 or 7 animals each, and fed under the same conditions as Example 1 until they completed their 11th week of age. Groups of B6 mice (two animals) and of SCG/Kj mice (15 weeks old; three animals) were further provided, and the five groups were subjected to the absorbance measurement for MPO-ANCA in the serum by an ELISA technique.
The MPO-ANCA titer was measured by following a method having already been reported (Ishida-Okawara, A., Ito-Ihara, T., Muso, E. et al., Neutrophil contribution to the crescentic glomerulonephritis in SCG/Kj mice, Nephrol. Dial. Transplant. 2004; 19: 1708-1715). To put it briefly: Recombinant mouse MPO was coated onto an ELISA plate (Toyoshima Co., Tokyo, Japan) at 4° C. overnight. The plate was blocked with 1% bovine serum albumin (BSA) (Sigma), then incubated at room temperature for 1.5 hours in the presence of mouse serum (50-fold dilution).
Bound MPO-ANCA was detected after an incubation for two hours in the presence of an alkaline phosphatase-labeled anti-mouse IgG antibody (Cappel). Subsequently, the secondary antibody as bound was quantified by measuring the absorbance at 405 nm after an incubation in the presence of 1 mg/ml of p-nitrophenyl phosphate (Sigma).

[7] = tested on: PD-1; experiment: mRNA expression level of PD-1 in the kidneys of SCG/Kj mice (quantitative real-time PCR); details: 5% EPA-E diet from seven weeks old until completed 11th week of age
Procedure: as §1, §2

## CC/C=C\C/C=C\C/C=C\C/C=C\C/C=C\CCCC(=O)OCC [EPA-E, ethyl icosapentate ester]
[1]
  CTLA4 mRNA expression level in the kidney as compared with the control group: likely to be increased
[2]
  Foxp3 mRNA expression level in the kidney as compared with the control group: significantly increased
[3]
  PD-L1 mRNA expression level in the kidney as compared with the control group: likely to be increased
[4]
  age at which the survival rate began to decrease: about 15 weeks old
  survival-prolonging effect: has a survival-prolonging effect
[5]
  PD-L2 mRNA expression level in the kidney as compared with the control group: likely to be increased
[6]
  ANCA levels relative to normal mice (B6): comparable to those of the normal mice (B6)
  ANCA production as compared with the control group and the corn oil group: evidently suppressed
[7]
  PD-1 mRNA expression level in the kidney as compared with the control group: likely to be increased
